These results are taken from patent publication US12157746B2, “Tetrahydro-1H-pyrazino[2,1-a]isoindolylquinoline compounds for the treatment of autoimmune disease” (F. HOFFMANN-LA ROCHE AG, priority 2018, dated 2024).

The target in this test is T1, human TLR9 (Homo sapiens, UniProt Q9NR96).
T1 sequence (Q9NR96 26-1032): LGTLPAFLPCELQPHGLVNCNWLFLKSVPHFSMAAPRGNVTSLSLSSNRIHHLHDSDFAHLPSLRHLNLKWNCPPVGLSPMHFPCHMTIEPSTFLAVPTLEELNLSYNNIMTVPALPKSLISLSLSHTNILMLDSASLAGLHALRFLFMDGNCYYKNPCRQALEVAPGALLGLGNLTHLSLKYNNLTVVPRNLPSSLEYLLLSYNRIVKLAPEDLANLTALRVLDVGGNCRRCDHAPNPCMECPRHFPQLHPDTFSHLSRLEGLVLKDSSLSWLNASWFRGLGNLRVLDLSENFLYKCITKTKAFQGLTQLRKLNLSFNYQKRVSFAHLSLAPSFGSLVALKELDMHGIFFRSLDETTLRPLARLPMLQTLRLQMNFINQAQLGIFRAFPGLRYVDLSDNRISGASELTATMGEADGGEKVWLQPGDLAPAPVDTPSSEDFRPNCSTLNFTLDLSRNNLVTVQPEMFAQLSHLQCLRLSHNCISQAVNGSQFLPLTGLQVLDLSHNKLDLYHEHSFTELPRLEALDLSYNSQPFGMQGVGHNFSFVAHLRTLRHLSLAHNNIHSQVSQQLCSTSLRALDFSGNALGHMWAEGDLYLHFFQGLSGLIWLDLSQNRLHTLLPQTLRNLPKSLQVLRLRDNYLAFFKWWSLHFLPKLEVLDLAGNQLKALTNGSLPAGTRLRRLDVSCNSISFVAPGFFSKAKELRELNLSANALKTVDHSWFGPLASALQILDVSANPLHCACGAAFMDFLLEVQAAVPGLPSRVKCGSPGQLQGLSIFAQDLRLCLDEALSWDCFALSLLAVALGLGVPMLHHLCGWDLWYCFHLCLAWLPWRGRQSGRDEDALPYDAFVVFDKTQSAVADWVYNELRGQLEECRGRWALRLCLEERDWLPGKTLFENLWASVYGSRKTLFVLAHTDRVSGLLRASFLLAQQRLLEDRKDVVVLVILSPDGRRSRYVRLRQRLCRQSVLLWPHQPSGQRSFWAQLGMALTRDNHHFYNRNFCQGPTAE
Kind of test: HEK293-Blue-hTLR-9 cells assay. As to conditions: HEK293-Blue-hTLR9 cells, ODN2006 stimulation, 20 hrs, SEAP reporter; read-out: HEK/hTLR9 IC50. In kind it is cell-based. In short, it runs like this:
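Antagonist mode in HEK293-Blue hTLR9 reporter cells (SEAP under NF-κB/AP-1 sites), stimulated with ODN2006 added from a 20 uM solution. Serially diluted compound (1% DMSO final) was incubated 20 hrs at 37° C. Supernatant SEAP was developed with QUANTI-Blue for 2 h at 37° C and read at 620˜655 nm.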

In the case of `CO[C@@H]1CN(c2ccc3c(c2)CN2[C@H](C)CN(c4ccc(C#N)n5nccc45)C[C@H]32)C[C@H]1N` [Example 94, 4-[(4R,10bS)-8-[(3R,4R)-3-amino-4-methoxy-pyrrolidin-1-yl]-4-methyl-3,4,6,10b-tetrahydro-1H-pyrazino[2,1-a]isoindol-2-yl]pyrazolo[1,5-a]pyridine-7-carbonitrile], the IC50 is 149 nM.
